Two compounds from publication PMC4619705 (PLoS ONE, 2015) can be followed below.

Several values for one entry are separate records, joined by “and”; a condition that tells them apart may be missing. Equal entries are not always repeated. Entries after “also recorded” stand apart in the source; their conditions may differ.

What all share (type): cell-based
In test [1] the target is T1, β3 homomeric receptors (Homo sapiens, UniProt P28472).
T1 construct: expressed in transfected cells; host or cells: Xenopus laevis oocytes injected with β3 mRNA (5 ng/oocyte)
T1 sequence (P28472 26-473): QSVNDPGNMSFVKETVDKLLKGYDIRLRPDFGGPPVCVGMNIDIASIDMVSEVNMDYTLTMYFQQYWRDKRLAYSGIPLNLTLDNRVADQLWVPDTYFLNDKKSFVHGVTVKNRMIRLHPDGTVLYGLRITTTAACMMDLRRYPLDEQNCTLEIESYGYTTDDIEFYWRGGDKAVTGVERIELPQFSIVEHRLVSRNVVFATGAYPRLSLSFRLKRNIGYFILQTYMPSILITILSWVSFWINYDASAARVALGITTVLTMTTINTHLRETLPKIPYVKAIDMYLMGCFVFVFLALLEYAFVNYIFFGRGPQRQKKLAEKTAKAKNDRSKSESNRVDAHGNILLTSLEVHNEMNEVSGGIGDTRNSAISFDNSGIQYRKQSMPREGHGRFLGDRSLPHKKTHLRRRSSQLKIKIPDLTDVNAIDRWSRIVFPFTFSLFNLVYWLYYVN
In words: Two-electrode voltage clamp of β3 homomeric receptors expressed in Xenopus oocytes. From the text:
(§1) Human complementary DNA (cDNA) of GABAAR α2 subunit (vector: pCMV6-XL5) was purchased from OriGene Technologies (Rockville, MD, USA), and the human β3 (vector: pGEMHE) and γ2L (vector: pCDM8) subunits were generous gifts from Dr. Bjarke Ebert (H. Lundbeck A/S, Valby, Denmark) and Dr. Paul Whiting (Merck, Sharp and Dohme Research Laboratories, Harlow, Essex, UK) respectively. […] Plasmid vectors with the cDNA incorporated were linearised using appropriate restriction endonucleases (α2: SmaI; β3: NheI; γ2L: NotI). Capped RNA transcripts were synthesised from linearised plasmids using the mMessage mMachine T7 transcript kit from Ambion (Austin, TX, USA). Purified messenger RNA (mRNA) was dissolved in nuclease-free water (Ambion, Austin, TX, USA), and its quality was assessed using 1% agarose gel electrophoresis. The concentration of each subunit mRNA was measured using Nanodrop ND-100 UV-Vis spectrophotometer (Thermo Fisher Scientific, North Ryde, NSW, Australia).
(§2) Various combinations of α2, β3 and γ2L subunit mRNAs were mixed to different ratios as stated in the text, and diluted accordingly to a concentration of 5 ng/μL (unless otherwise stated). […] Injected oocytes were stored in ND96 storage solution supplemented with 50 μg/mL gentamycin and tetracycline at 18°C. Two-electrode voltage clamp recordings were performed on oocytes 2–4 days post-injection at room temperature (20–25°C) using a GeneClamp 500B amplifier (ADInstruments, Sydney, NSW, Australia) or a Warner OC-725C Oocyte Clamp (Warner Instrument Corp, Hamden, CT, USA). All experiments were conducted at a holding potential of –60 mV, and data were acquired with a PowerLab 2/25, and LabChart (version 5.0.2) software (ADInstruments, Sydney, NSW, Australia). The recording microelectrodes (0.2–1.1 MΩ) were generated from capillary glass (Harvard Apparatus, Holliston, MA, USA) using a single-stage glass microelectrode puller (Narishige, Tokyo, Japan), and were filled with 3 M KCl solution. The perfusion system was built using a series of polycarbonate, high-density polyethylene two-way stopcocks (Qosina, Edgewood, NY, USA), connected through tubing to the recording chamber (100 μL), where the oocyte was continuously perfused with ND96 recording solution (96 mM NaCl, 2 mM KCl, 1 mM MgCl2, 1.8 mM CaCl2, 5 mM HEPES hemisodium; pH 7.4) at an approximate rate of 5 mL/min.
(§3) Perfusates containing these chemicals were made up fresh before each application. The concentration-response curves of agonists were obtained by exposing oocytes to increasing concentrations of agonists until the currents peaked. […] All experiments were performed using at least two different batches of oocytes.
Prism (version 5.04; GraphPad Software, La Jolla, CA, USA) was used for data analysis. […]
(In general: In two-electrode clamp one electrode senses voltage and the other passes current.)

In test [2] the target is T2, α2β3γ2L GABAARs (Homo sapiens, UniProt P18507+P28472+P47869).
T2 construct: expressed in transfected cells; host or cells: Xenopus laevis oocytes injected with capped mRNA, α2:β3:γ2L 3:1:3
T2 sequence (P47869 29-451, one chain of several): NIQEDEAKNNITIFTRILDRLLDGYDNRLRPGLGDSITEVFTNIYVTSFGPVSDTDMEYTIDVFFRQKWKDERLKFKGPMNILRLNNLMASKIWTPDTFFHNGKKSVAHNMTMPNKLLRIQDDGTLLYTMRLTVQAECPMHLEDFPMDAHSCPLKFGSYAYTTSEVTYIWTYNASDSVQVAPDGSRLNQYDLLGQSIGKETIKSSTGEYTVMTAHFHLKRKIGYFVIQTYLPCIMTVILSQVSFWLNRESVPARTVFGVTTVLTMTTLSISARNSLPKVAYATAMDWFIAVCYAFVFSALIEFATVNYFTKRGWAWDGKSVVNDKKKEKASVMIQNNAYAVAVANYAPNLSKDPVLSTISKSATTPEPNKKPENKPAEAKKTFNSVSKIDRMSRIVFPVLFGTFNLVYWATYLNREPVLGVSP
T2 sequence (P18507 40-475, one chain of several): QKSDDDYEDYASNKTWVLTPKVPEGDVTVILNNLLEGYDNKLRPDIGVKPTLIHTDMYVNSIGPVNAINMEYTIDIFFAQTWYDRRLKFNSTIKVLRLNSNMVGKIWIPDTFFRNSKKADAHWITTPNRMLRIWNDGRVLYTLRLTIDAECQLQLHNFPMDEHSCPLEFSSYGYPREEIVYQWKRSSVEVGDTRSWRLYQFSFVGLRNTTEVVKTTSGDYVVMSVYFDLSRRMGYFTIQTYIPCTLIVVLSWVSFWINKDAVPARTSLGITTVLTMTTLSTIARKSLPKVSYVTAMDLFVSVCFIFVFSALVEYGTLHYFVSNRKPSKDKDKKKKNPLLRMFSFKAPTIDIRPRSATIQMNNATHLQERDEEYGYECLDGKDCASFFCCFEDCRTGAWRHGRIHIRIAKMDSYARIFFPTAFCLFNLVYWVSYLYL
In words: Two-electrode voltage clamp of recombinant α2β3γ2L GABAARs expressed in Xenopus oocytes.
Description: as §1, §2, §3
(§4) Prism (version 5.04; GraphPad Software, La Jolla, CA, USA) was used for data analysis.
(§5) In all cases, we constrained the bottom to 0, and when fitting data to the biphasic model, the Hill slopes were constrained to 1. Statistical comparisons of results for different injection ratios of β3γ2L receptors were performed using ANOVA with Tukey’s post-hoc test. When comparing results from different injection ratios of β3γ2L receptors with α2β3γ2L receptors, the ANOVA Dunnett’s test was used. Pairwise comparisons were performed using Student’s t test. Statistical significance was attained at p < 0.05.

Test [3] addresses T3, β3γ2L GABAARs (Homo sapiens, UniProt P18507+P28472).
T3 construct: expressed in transfected cells; host or cells: Xenopus laevis oocytes injected with β3 and γ2L mRNAs at 1:1 to 1:100
In words: Two-electrode voltage clamp of β3γ2L GABAARs expressed at various β3:γ2L mRNA ratios in Xenopus oocytes. To be noted: for EC50: EC50 (95% CI) of direct activation; for EC50 / E max ± SEM (300 μM 2’MeO6MF-elicited current normalised against 3 mM GABA response) / n H ± SEM (Hill slope) of direct activation: -60 mV; for 2’MeO6MF activity: 100 μM; for Enhancement of GABA current (co-application): GABA EC3–10 + 100 or 300 μM ligand, data not shown; for Expression level (current response elicited by GABA): 3 mM GABA; for Frac (95% CI), proportion of maximal response mediated by the more potent component / n H_1 (Hill slope) / n H_2 (Hill slope): biphasic fit; for n H_1 (Hill slope) / n H_2 (Hill slope): Hill slopes constrained to 1.
Description: as §1
as §2, with “All experiments were conducted at a holding potential of –60 mV, and data were acquired with a PowerLab 2/25, and LabChart (version 5.0.2) software (ADInstruments, Sydney, NSW, Australia).” left out
as §3, §4, §5

T3 sequence (P18507 40-475, one chain of several): as above

As for `COc1ccccc1-c1cc(=O)c2cc(C)ccc2o1` [2’MeO6MF, 2’-methoxy-6-methylflavone], the “2’MeO6MF activity” value in test [1] (β3 alone, 3–300 μM) is “Inverse agonism”; in test [2] (α2β3γ2L 3:1:3) it was “Activation”; in test [3] (β3γ2L 1:1), “inhibited the constitutive activity; also recorded: inverse agonist; also recorded: Inverse agonism”; in test [3] (β3γ2L 1:5), “mixed agonist and inverse agonist activity; also recorded: mixed inverse agonist and agonist effect; also recorded: Inverse agonism/activation”; in test [3] (β3γ2L 1:10), “mixed agonist and inverse agonist activity; also recorded: mixed inverse agonist and agonist effect; also recorded: Inverse agonism/activation”; in test [3] (β3γ2L 1:15), “directly activated receptors expressed efficaciously; also recorded: Activation”. Further, the “2’MeO6MF activity” value is recorded as “variable efficacy; also recorded: Activation” in test [3] (β3γ2L 1:20), “activation with low efficacy” in test [3] (β3γ2L 1:50) and “activation with low efficacy” in test [3] (β3γ2L 1:100). The “Maximal inhibition of constitutive activity (normalised against oocyte holding current)” value in test [1] (β3 homomers, 300 μM ligand) is 54 ± 3.0%. The EC50 (as a rule, the concentration needed to bring the measured effect to its halfway point) is ~74 µM in test [2], 45 µM in test [3] (β3γ2L 1:15), 62 µM in test [3] (β3γ2L 1:50) and 63 µM in test [3] (β3γ2L 1:100). For the same compound, in test [2] (α2β3γ2L 3:1:3, 300 μM ligand, mean ± SEM), the “Direct activation, % of the 3 mM GABA response” value came to 8.2 ± 3.6%. In addition, the “Enhancement of GABA current (co-application)” value is recorded as “No enhancement” in test [2] (α2β3γ2L 3:1:3, GABA EC3–10 + 100 or 300 μM ligand, data not shown); “No enhancement” in test [3] (β3γ2L 1:15); “No enhancement” in test [3] (β3γ2L 1:100). Also, the “Elicited current, % of the 3 mM GABA responses (mean ± SEM)” value in test [3] (β3γ2L 1:15, 100 μM ligand) is listed as 87 ± 4.5%; in test [3] (β3γ2L 1:20, 100 μM ligand) it was “approximately 34 ± 4.0%”; in test [3] (β3γ2L 1:50, 100 μM ligand), “around 6.7 ± 1.2%”; in test [3] (β3γ2L 1:100, 100 μM ligand) it was ~5.1 ± 0.72%. For the same compound, the figures for the “E max ± SEM (300 μM 2’MeO6MF-elicited current normalised against 3 mM GABA response)” value in test [3] (β3γ2L 1:15), in test [3] (β3γ2L 1:50) and in test [3] (β3γ2L 1:100) were 1.2 ± 0.10, 0.086 ± 0.018 and 0.10 ± 0.020, respectively. Further, the results for the “n H ± SEM (Hill slope) of direct activation” value in test [3] (β3γ2L 1:15), in test [3] (β3γ2L 1:50) and in test [3] (β3γ2L 1:100) were 1.8 ± 0.42, 1.4 ± 0.88 and 1.6 ± 0.76, respectively. In test [3] (β3γ2L 1:20, 100 μM ligand), the “Relative efficacy, range across oocytes, % of the 3 mM GABA responses” value is reported as 1.0 to 120%.

Regarding `NCCCC(=O)O` [GABA, γ-aminobutyric acid], the “Expression level (current response elicited by GABA)” value in test [1] (β3 alone, 5 ng mRNA/oocyte, 60 mM GABA, -60 mV) is 290 ± 67 nA; in test [2] (α2β3γ2L 3:1:3, 3 mM GABA) it was 4300 ± 940 nA; in test [3] (β3γ2L 1:1), 110 ± 34 nA; in test [3] (β3γ2L 1:5) it was 270 ± 80 nA; in test [3] (β3γ2L 1:10), 310 ± 61 nA; in test [3] (β3γ2L 1:15), 490 ± 47 nA. Also, the “Expression level (current response elicited by GABA)” value in test [3] (β3γ2L 1:20) is on record as 860 ± 87 nA; in test [3] (β3γ2L 1:50), 1000 ± 160 nA; in test [3] (β3γ2L 1:100) it was 1100 ± 100 nA. The “I max ± SEM (current amplitude elicited by 30 mM GABA)” value in test [3] (β3γ2L 1:15) worked out at 780 ± 220 nA; in test [3] (β3γ2L 1:50), 1000 ± 250 nA; in test [3] (β3γ2L 1:100), 1000 ± 97 nA. For the same compound, the “n H_1 ± SEM (Hill slope)” value in test [3] (β3γ2L 1:15, monophasic fit) was 0.54 and 0.54 ± 0.040. The “Frac (95% CI), proportion of maximal response mediated by the more potent component” value in test [3] (β3γ2L 1:50) is on record as 0.74 (0.67–0.80); in test [3] (β3γ2L 1:100) it was 0.71 (0.65–0.77). In addition, the “n H_1 (Hill slope)” value in test [3] (β3γ2L 1:50) and in test [3] (β3γ2L 1:100) was 1.0 throughout. Further, the “n H_2 (Hill slope)” value in test [3] (β3γ2L 1:50) and in test [3] (β3γ2L 1:100) was 1.0 in each case.
